How the values were obtained:
[1] = plasma pharmacokinetics in trial patients; format: in vivo, human; settings: cycle 1, suggesting absence of drug-drug interactions
DMS114 cells = experiment: flow cytometry EdU incorporation and cell cycle analysis; format: cell-based, human; settings: M6620 with topotecan; forced progression to G2/M phase
SCLC cells = experiment: MIPE 5.0 library combination screen with indotecan, pairs ranked by ExcessHSA; format: cell-based, human; settings: in combination with indotecan (LMP400)
pCHK1 (Ser345) = experiment: pharmacodynamics of pCHK1; format: in vivo, mice; settings: M6620 10, 20 and 30 mg/kg i.v. with 50 mg/kg irinotecan i.p.; 1-24 h
[2] = test system: TOP1 DNA-protein crosslinks (TOP1-DPCs) in DMS114 cells; experiment: in vivo complex of enzyme; format: cell-based, human
[3] = test system: DMS114 and H209 SCLC cell models; experiment: replication; format: cell-based, human
[4] = test system: replication protein A (RPA) S33 phosphorylation; experiment: Western blot of RPA phosphorylation; format: cell-based, human
[5] = test system: patients with platinum-resistant SCLC; settings: topotecan monotherapy, ref Horita et al., 2015; cited from earlier work
[6] = test system: platinum-resistant SCLC patients; settings: second-line lurbinectedin; ref Trigo et al., 2020; cited from earlier work

Q: What does the source list for `CNCc1ccc(-c2cc(-c3nc(-c4ccc(S(=O)(=O)C(C)C)cc4)cnc3N)on2)cc1` [M6620, berzosertib]?
A: plasma pharmacokinetics in combination [1]: appeared consistent with the individual agents; S-phase arrest induced by TOP1 inhibition (DMS114 cells): abrogated the S-phase arrest induced by TOP1 inhibition; rank of TOP1 inhibitor-drug pair by ExcessHSA (SCLC cells): 32; irinotecan induced pCHK1 (Ser345) (pCHK1 (Ser345)): blocks irinotecan induced pCHK1 in a dose- and time-dependent manner; increase in TOP1-DPCs ([2]; M6620 pre-treatment (1 μM, 4 h), after 2-hour treatment with topotecan (1 μM)): 1.4 fold; topotecan-induced replication block ([3]; M6620 added to topotecan): abrogated the replication block; topotecan-induced RPA32 phosphorylation ([4]; M6620 treatment): reduced the topotecan-induced RPA32 phosphorylation

Q: For `COc1cccc(OCCCN)c1-c1cc(Nc2cnc(C#N)cn2)n[nH]1` [prexasertib], which “rank of TOP1 inhibitor-drug pair by ExcessHSA” value (SCLC cells) is on record?
A: Its value is 9.

Q: With `CC[C@@]1(O)C(=O)OCc2c1cc1n(c2=O)Cc2cc3c(CN(C)C)c(O)ccc3nc2-1` [topotecan] as the molecule, how does the “plasma pharmacokinetics in combination” value [1] read?
A: Its value is “appeared consistent with the individual agents”.

Q: And the “responses (proportion of patients)” value [5]?
A: Its value is “approximately 5%”.

Q: What about the replication velocity ([3]; within 30 minutes of topotecan treatment) of the same molecule?
A: The replication velocity was “significantly reduced replication velocity”.

Q: And the “phosphorylation of RPA at S33” value ([4]; DMS114 cells, following exposure to topotecan)?
A: The value was “rapid phosphorylation of replication protein A (RPA) at S33”.

Q: For `CC(C)c1cc(-c2n[nH]c(=O)n2-c2ccc3c(ccn3C)c2)c(O)cc1O` [ganetespib], which “rank of TOP1 inhibitor-drug pair by ExcessHSA” value (SCLC cells) is on record?
A: The value was 5.

Q: Which results are given for `COc1ccc2[nH]c3c(c2c1)CCN[C@]31CS[C@@H]2c3c(OC(C)=O)c(C)c4c(c3[C@H](COC1=O)N1[C@@H]2[C@H]2c3c(cc(C)c(OC)c3O)C[C@@H]([C@@H]1O)N2C)OCO4` [lurbinectedin]?
A: confirmed ORR [6]: 22.2%; median DOR [6]: 4.7 months; patients with confirmed responses with DOR>6 months [6]: 11.7%

Q: For `O=c1cc(-c2cccc3c2Sc2ccccc2S3)oc(N2CCOCC2)c1` [KU55933], which “potentiation of topotecan-generated TOP1-DPCs” value ([2]; 1 μM pretreatment 4 h before topotecan 1 μM 2 h) is on record?
A: Its value is “neither an ATM inhibitor (KU55933) nor a DNA-PKcs inhibitor (VS984) potentiated topotecan-generated TOP1-DPCs”.

Reference: article PMC8048383 (Cancer cell, 2021)
